Measurements reported in publication PMC9380430, “Aaptamine – a dual acetyl – and butyrylcholinesterase inhibitor as potential anti-Alzheimer’s disease agent” (Pharmaceutical Biology, 2022).

Assays:
[1] = test system: AlCl3-induced zebrafish AD model; assay: AlCl3-induced zebrafish AD model, behaviour assay; type: in vivo; conditions: + 100 μM AlCl3, 3 d; for speed change after light stimulus: model 1.38 mm/s, control 2.56 mm/s; for movement distance during 60 min: model 4968 mm, control 9219 mm
Protocol: Briefly, the 3–6 dpf zebrafish larvae were randomly placed in a 6-well microplate at a density of 30 zebrafish per well and treated with 100 μM AlCl3 to establish the AD model. […] The control group was maintained in the reverse osmosis water with 0.5% DMSO while the model group was treated with 100 μM AlCl3 containing 0.5% DMSO. […] After 3 d, the distance and speed change after light stimulus alteration were analysed and recorded for three rhythmic light within 60 min (10 min darkness and 10 min illumination alternately) using viewpoint behaviour analyser (Zebralab V3, ViewPoint Life Sciences Co., Ltd., Lyons, France). The protocol for this study involving animals and their maintenance was approved by the Animal Care and Use Committee of Shandong Academy of Sciences (No.00612). Efficacy on motility (%)=[Dsample group−Dmodel group]/[Duntreated group−Dmodel group]×100.
D is the movement distance of zebrafish during 60 min.
Efficacy on speed change (%) = [Vsample group – Vmodel group]/[Vuntreated group – Vmodel group] × 100. V is the average velocity (mm/s) of different groups which was obtained by recording the movement distance of every min for every zebrafish during 60 min. All data are expressed as mean ± SEM and analysed by GraphPad Prism version 7.0 software (Graphpad Software Inc., La Jolla, CA). Differences between groups were examined for statistical significance using one‐way ANOVA with Tukey’s post hoc test.

BuChE [2] = molecular target: T1, BuChE (Equus caballus, UniProt P81908); assay: biochemical; conditions: substrate BTChI, 37 °C; read-out: IC50 against BuChE
T1 construct: BuChE (10 U/mg from horse serum); purchased Shanghai Yuanye Bio-Technology (Shanghai, China); host or cells: horse serum
T1 sequence (P81908 whole entry): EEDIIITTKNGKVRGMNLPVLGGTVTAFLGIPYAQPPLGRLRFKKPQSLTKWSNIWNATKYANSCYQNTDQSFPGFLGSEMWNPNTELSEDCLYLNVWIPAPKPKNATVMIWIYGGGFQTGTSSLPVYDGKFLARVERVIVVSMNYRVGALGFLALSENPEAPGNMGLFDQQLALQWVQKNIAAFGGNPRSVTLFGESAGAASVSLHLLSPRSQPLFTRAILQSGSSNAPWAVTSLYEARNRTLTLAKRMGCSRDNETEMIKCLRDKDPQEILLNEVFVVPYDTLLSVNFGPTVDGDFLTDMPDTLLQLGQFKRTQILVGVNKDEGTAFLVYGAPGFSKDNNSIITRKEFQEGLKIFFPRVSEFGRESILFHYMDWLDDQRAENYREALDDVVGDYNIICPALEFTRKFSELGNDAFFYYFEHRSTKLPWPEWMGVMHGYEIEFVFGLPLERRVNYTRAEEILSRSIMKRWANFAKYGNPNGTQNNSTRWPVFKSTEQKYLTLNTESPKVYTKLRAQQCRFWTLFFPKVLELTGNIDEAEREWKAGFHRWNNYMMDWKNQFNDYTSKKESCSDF
Protocol: (§1) AChE (200 U/g from electric eel) and 5,5′-dithiobis(2-nitrobenzoic acid) (DNTB) were purchased from Macklin Inc. (Shanghai, China). BuChE (10 U/mg from horse serum), acetylthiocholine iodide (ATChI) and butyrylthiocholine iodide (BTChI) were purchased from Shanghai Yuanye Bio-Technology (Shanghai, China).
(§2) The lyophilized powder of AChE and BuChE was dissolved in protein stabilizer (0.1 g BSA dissolved in 100 mL PBS) to form the storage concentration of 10 U/mL and then diluted to the required concentrations. […] After 30 min of incubation at 37 °C, 10 μL of substrate ATChI or BTChI (10 mM) were added and incubated at 37 °C for 30 min. […] For the blank control group, the assays were carried out with wells containing all components except AChE and BuChE. […] All experiments were performed in triplicate.

AChE [3] = molecular target: T2, AChE (Electrophorus electricus, UniProt O42275); assay: biochemical; conditions: substrate ATChI, 37 °C; read-out: IC50 against AChE
T2 construct: AChE (200 U/g from electric eel); purchased Macklin Inc. (Shanghai, China)
T2 sequence (O42275 24-633): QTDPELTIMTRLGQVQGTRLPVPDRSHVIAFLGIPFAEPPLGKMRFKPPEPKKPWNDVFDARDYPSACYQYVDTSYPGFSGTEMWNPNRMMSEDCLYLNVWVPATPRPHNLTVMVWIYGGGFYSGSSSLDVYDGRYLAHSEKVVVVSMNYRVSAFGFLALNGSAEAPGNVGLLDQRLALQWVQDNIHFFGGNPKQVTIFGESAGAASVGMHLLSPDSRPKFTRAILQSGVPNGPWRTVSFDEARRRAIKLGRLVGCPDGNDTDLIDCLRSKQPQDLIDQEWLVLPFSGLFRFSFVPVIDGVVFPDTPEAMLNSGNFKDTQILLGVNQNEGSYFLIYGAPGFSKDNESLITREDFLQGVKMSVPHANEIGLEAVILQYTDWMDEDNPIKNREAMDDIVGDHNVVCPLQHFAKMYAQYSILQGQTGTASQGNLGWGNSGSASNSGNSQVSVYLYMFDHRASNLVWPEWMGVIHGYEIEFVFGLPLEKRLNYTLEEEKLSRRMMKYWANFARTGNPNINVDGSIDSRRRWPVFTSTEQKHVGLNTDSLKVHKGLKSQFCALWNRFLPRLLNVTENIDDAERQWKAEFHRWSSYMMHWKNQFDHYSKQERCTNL
Protocol: as §1, §2

[4] = test system: nicotinic acetylcholine receptors (nAChRs); conditions: ref Kudryavtsev et al. [2014]; cited from earlier work
BuChE [5] = molecular target: T1, BuChE; assay: Surface plasmon resonance (SPR) assay, BuChE; type: binding; conditions: Biacore T100, steady-state affinity fitting; read-out: Kd (equilibrium dissociation constant) for BuChE
Protocol: (§3) The experiments were carried out using Biacore T100 with the Sensor Chip CM5. The chip surface was activated following standard NHS + EDC with Biacore PBS-EP (0.02 M Phosphate buffer with 2.7 mM KCl, 0.137 M NaCl and 0.05% P20) buffer used as the running buffer. 7000 RU of untagged AChE or 6600 RU of untagged BuChE was immobilized per flow cell and 100 μg/mL AChE or 20 μg/mL BuChE was injected. The cholinesterase protein is coupled to the sensor chip CM5 by amine coupling. 1 M (pH 8.5) ethanolamine-HCl was used to seal off the active group. Aaptamine was injected into the protein channel and blank channel at the following doses: 100, 50, 25, 12.5, 6.25, 3.125 and 0.39 μM at a flow rate of 30 μL/min. The protein binding period was set to 1 min, and the dissociation period was set to 2 min. The affinity was obtained by fitting the binding data using Biacore T100 Evaluation Software version 3.0 (Chicago, USA).

[6] = test system: nicotinic acetylcholine receptors (nAChRs); conditions: ref Kudryavtsev et al. [2014]; cited from earlier work; remark: listed apart in the source
AChE [7] = molecular target: T2, AChE; assay: Surface plasmon resonance (SPR) assay, AChE; type: binding; conditions: Biacore T100, steady-state affinity fitting; read-out: Kd (equilibrium dissociation constant) for AChE
Protocol: as §3

AChE [8] = molecular target: T2, AChE; assay: Kinetic study of AChE inhibition (Lineweaver-Burk, secondary plot); type: biochemical
Protocol: (§4) To clarify the mechanism of action of aaptamine, reciprocal plots of 1/[velocity] vs. 1/[substrate] (Lineweaver-Burk plots) were constructed at different concentrations of the substrate ATChI or BTChI (0, 1.25, 2.5, 5, 10 and 25 mM) and aaptamine (0, 5, 20 and 40 μM). Meanwhile, the parallel experiment was also carried out without aaptamine. The remaining procedure was the same as that of described in cholinesterases inhibition assay. The data were plotted on a Lineweaver–Burk diagram using Microsoft Excel 2016 to reveal the mechanism of inhibition. The steady-state inhibition constant Ki (intercept on the x-axis) was determined by the secondary plot of slope vs. the concentrations of inhibitor.

BuChE [9] = molecular target: T1, BuChE; assay: Kinetic study of BuChE inhibition (Lineweaver-Burk, secondary plot); type: biochemical
Protocol: as §4

AChE [10] = conditions: ref Moodie et al. [2019]; read-out: IC50 against AChE (literature); cited from earlier work
BuChE [11] = conditions: ref Moodie et al. [2019]; read-out: IC50 against BuChE (literature); cited from earlier work

COc1cc2ccnc3c2c(c1OC)NC=C3 [aaptamine]
dyskinesia recovery rate ([1]; 5 μM): 34.8% | efficacy on speed change ([1]; 5 μM): 34.7% | speed change after light stimulus ([1]; 5 μM): 1.79 mm/s | movement distance during 60 min ([1]; 5 μM): 6447 mm | dyskinesia recovery rate ([1]; 10 μM): 58.8% | efficacy on speed change ([1]; 10 μM): 58.5% | speed change after light stimulus ([1]; 10 μM): 2.07 mm/s | movement distance during 60 min ([1]; 10 μM): 7466 mm | dyskinesia recovery rate ([1]; 20 μM): 60.0% | efficacy on speed change ([1]; 20 μM): 60.2% | speed change after light stimulus ([1]; 20 μM): 2.09 mm/s | movement distance during 60 min ([1]; 20 μM): 7517 mm | IC50 (BuChE [2]): 4.6 µM | IC50 (AChE [3]): 16 µM | inhibitory effect on nAChRs of Torpedo californica [4]: weak inhibitory effect | Kd (BuChE [5]): 10.7 µM | inhibitory effect on nAChRs of humans [6]: weak inhibitory effect | Kd (AChE [7]): 87.6 µM | inhibition type towards AChE (AChE [8]; Lineweaver-Burk plots): mixed-type inhibition | Ki (AChE [8]; secondary plot of slope vs inhibitor concentration, substrate ATChI, read-out: steady-state inhibition constant Ki against AChE): 6.96 ± 0.04 µM | inhibition type towards BuChE (BuChE [9]; Lineweaver-Burk plots): mixed-type inhibition | Ki (BuChE [9]; secondary plot of slope vs inhibitor concentration, substrate BTChI, read-out: steady-state inhibition constant Ki against BuChE): 6.35 ± 0.02 µM

COc1cc2c(cc1OC)C(=O)C(CC1CCN(Cc3ccccc3)CC1)C2 (centres unmarked) [donepezil, reference compound]
dyskinesia recovery rate ([1]; 8 μM): 63.7% | efficacy on speed change ([1]; 8.0 μM): 63.6% | speed change after light stimulus ([1]; 8.0 μM): 2.13 mm/s | movement distance during 60 min ([1]; 8 μM): 7675 mm

CCN(C)C(=O)Oc1cccc([C@H](C)N(C)C)c1 [rivastigmine]
IC50 (BuChE [11]): […] | IC50 (AChE [10]): […]
